Data taken from patent publication US20090264392A1, “TREATING EOSINOPHILIC ESOPHAGITIS” (Meritage Pharma, Inc., priority 2008, published 2009).

Key:
[1] = tested on: eosinophilic esophogitis (EoE) patients; experiment: Example 1: budesonide gel therapy in patients with EoE; assay type: in vivo, human; conditions: tolerance comparison; seven patients who received fluticasone and budesonide therapy
Description: Eighteen patients were entered into the study (mean age 41; 5 females; 13 males). 16 patients had more than 15 eos/HPF on tissue obtained from the esophagus by biopsy during endoscopy. […] Both these patients responded completely to steroids. The mean serum eosinophil count was 215. Three patients had normal endoscopies. Six patients had strictures. […] Mucosal fragility was described in one patient. […] 14 patients underwent allergy testing.
The following symptoms were recorded: dysphagia (18/18), heartburn (9/18), regurgitation (4/18), asthma (5/18), allergic skin disease (1/18), seasonal allergies (8/18), proton pump inhibitor (PPI) medication use to treat esophageal reflux disease (10/18), and history of food impaction (15/18).
Budesonide gel (3 mg/10 mL Rincinol) was formulated as provided below. Preparation involved accurate weighing and measuring of the ingredients. Trituration of the powder into the Rincinol liquid was performed using geometric dilution techniques. The product was stirred using a stir plate, packaged, and labeled.
The standard dose was 3 mg twice a day for one week, which was then decreased to once a day for six weeks. 11 of 18 patients received standard dosing. Six of 18 patients received an alternate treatment regiment of 3 mg twice a day for a variable treatment period of time of greater than one week. The longest of which was eight months. […]

[2] = tested on: patients with greater than 15 eos/HPF and solid food dysphagia (EoE); experiment: Example 2: BRG therapy of eosinophilic esophagitis in adults; assay type: in vivo, human; conditions: 8 patients who had previously received fluticasone
Description: An oral gel combining budesonide with the mucosal adherent preparation Rincinol (the combination referred to as “BRG”) was compounded. Patients with abnormal Mayo dysphagia questionnaires underwent EGD with biopsies. 16 patients with greater than 15 eos/HPF and solid food dysphagia were enrolled in the study and treated with BRG. Patients were instructed to take BRG 3mg/10 cc BID. If patients noted marked improvement at one week, they were switched to once daily BRG for 6 weeks; otherwise they were continued on BID BRG for a total of 6 weeks. Dysphagia symptoms and BRG side effects over the last two weeks of treatment were assessed by personal interview. Symptoms were evaluated on a scale of dysphagia resolution: <25%, 25-49%, 50-74%, 75-99% or complete resolution. Those patients, who had previously utilized topical fluticasone for EoE, were asked to compare BRG vs topical fluticasone with respect to treatment effect and tolerance.

Question: C[C@@H]1C[C@H]2[C@@H]3C[C@H](F)C4=CC(=O)C=C[C@]4(C)[C@@]3(F)[C@@H](O)C[C@]2(C)[C@@]1(O)C(=O)SCF [fluticasone] was tested. Which “patients who preferred fluticasone” value [1] did it give?
Answer: Two of the seven

Question: And the “patients who favored fluticasone (tolerance)” value [2]?
Answer: 25%
